Assay results published in publication PMC4102782, “Dual Aurora A and JAK2 kinase blockade effectively suppresses malignant transformation” (Oncotarget, 2014).
Read-outs that look alike come from different tables or passages of the source.

Tests used:
[1] = test system: P-Histone H3 (Ser-10), Aurora B substrate; test: Western blot, phosphorylation of Histone H3 in MDA-MB-468 cells; format: cell-based, human
Procedure: (§1) Cells were plated in 6 cm dishes at a density of 2 × 10^5 cells/dish. Aurora A activity was determined by measuring autophosphorylation of Aurora A on Thr288 in cells that were synchronized by treatment with nocodazole (100 ng/mL) for 20 h prior to the treatment with Aurora inhibitors, whereas Aurora B activity was determined by measuring phosphorylation of histone H3 on Ser-10 (p-HH3). […] Cells were harvested after 2 h of treatment and processed for SDS−PAGE and Western blotting.
(§2) Cells were harvested from experiments of ectopic expression or knockdown using siRNA or the treatment with the inhibitors, washed, and then lysed using lysis buffer as previously described. The protein concentration of the lysate was measured, and the lysate was mixed with gel electrophoresis loading buffer, boiled for 5 minutes, separated by SDS-PAGE, and transferred to nitrocellulose membranes.

[2] = test system: MDA-MB-468 cells; test: Cell-cycle analysis by flow cytometry, MDA-MB-468; format: cell-based, human; details: MDA-MB-468, same conditions, data not shown
Procedure: (§3) To evaluate the effect of inhibitors on cell cycle progression, cells were treated with inhibitors at indicated dose or DMSO control and then harvested, fixed with 70% ethanol pretreated with RNase, and stained with propidium iodide (PI) (Sigma) as previously described for flow cytometry analysis. For the detection of apoptosis, cells were cultured for 24 h in medium with inhibitors at indicated dose or DMSO control and harvested for SDS−PAGE and Western blotting. The siRNA or drug treatment-induced apoptosis was detected by Western blot analysis of the cleavage of PARP and caspase-3.

[3] = test system: Aurora A auto-phosphorylation (Thr-288); test: Western blot, Aurora A auto-phosphorylation in nocodazole-synchronized MDA-MB-468 cells; format: cell-based, human; details: MDA-MB-468, nocodazole-synchronized, 2 h
Procedure: as §1, §2

[4] = test system: FLT3; parameters: method as in PMID 15126317; details: cited from earlier work
[5] = test system: HT-29 cells; test: Soft agar anchorage-independent growth, HT-29; format: cell-based, human; details: HT-29, Alisertib 2 μM
Procedure: (§4) The cells were allowed to incubate at 37° C for 3 weeks and fed once per week with the inhibitor before 1 mg/ml MTT (Sigma) solution was added overnight to facilitate colony counting. Colonies were scored and counted according to size, as previously described.

[6] = test system: MDA-MB-468 cells; test: Anchorage-dependent proliferation, MTT assay, MDA-MB-468; format: cell-based; details: Homo sapiens, 48 h
Procedure: (§5) Cells were cultured in 96 well plates at a density of 2,000 cells/ well. The cells with siRNA transfection or with the inhibitor treatment were monitored for viability using MTT at indicated time points. At the given time points, MTT reagent was added to the media and allowed to incubate for 3 h at 37° C in a humidified incubator at 5% CO2. The medium was then removed and MTT crystals were dissolved in DMSO (Sigma). Cell viability was quantified by reading the plates at an absorbance of 540 nm on a μQuant microplate reader using KC4 data analysis software (Bio-Tek Instruments). The 540 nm absorbance of vehicle-treated wells was used to define 100% proliferation. Each condition was performed in replicates of six wells.

[7] = test system: P-STAT3; test: Western blot, phosphorylation of STAT3 in HT-29 cells; format: cell-based, human; details: HT-29, Alisertib 2 μM
Procedure: as §1, §2

[8] = test system: P-Histone H3; test: Western blot, phosphorylation of Histone H3 in HT-29 cells; format: cell-based, human; details: HT-29, Alisertib 2 μM
Procedure: as §1, §2

[9] = test system: P-STAT3 (Y705), JAK2 substrate; test: Western blot, phosphorylation of STAT3 in MDA-MB-468 cells; format: cell-based, human; details: MDA-MB-468, Alisertib 0.5 μM
Procedure: as §1, §2

[10] = test system: PARP cleavage and Caspase 3 activation in MDA-MB-468 cells; test: Apoptosis by Western blot of PARP cleavage and Caspase 3 activation, MDA-MB-468; format: cell-based, human; details: MDA-MB-468, single agent, low concentration, e.g. Alisertib 0.03 μM
Procedure: as §3, with “Cells were harvested from experiments of ectopic expression or knockdown using siRNA or the treatment with the inhibitors, washed, and then lysed using lysis buffer as previously described. The protein concentration of the lysate was measured, and the lysate was mixed with gel electrophoresis loading buffer, boiled for 5 minutes, separated by SDS-PAGE, and transferred to nitrocellulose membranes. […] To” for “To”, “SDS-PAGE” for “SDS−PAGE”

[11] = test system: HT-29 cells; test: Matrigel Transwell invasion, HT-29; format: cell-based, human; details: HT-29, Alisertib 4 μM
Excerpt: Medium containing 10%FBS was placed in the lower chamber. […] Invading cells in the membrane were fixed with 100% methanol and stained with fresh prepared 0.2% crystal violet. Noninvasive cells in the upper chamber were removed by wiping the upper side of the membrane with a cotton swab, and cells located on the underside of the filter were observed and photographed under Olympus stereo microscope. The number of invading cells was counted using Image-Pro analysis software.

[12] = test system: HT29 cells; test: Anchorage-dependent proliferation, MTT assay, HT29; format: cell-based; details: Homo sapiens
Procedure: as §5

[13] = test system: MDA-MB-468 cells; test: Soft agar anchorage-independent growth, MDA-MB-468; format: cell-based, human; details: MDA-MB-468, Alisertib 0.5 μM
Procedure: as §4, with “For analysis of anchorage-independent growth, log-phase growing cells were trypsinized, and triplicates of 1.5 × 10^3 cells per well were seeded in regular growth medium containing 0.3% agar (Sigma) and drug added at the indicated concentrations, as previously described. The” for “The”

[14] = test system: MDA-MB-468 cells; test: Matrigel Transwell invasion, MDA-MB-468; format: cell-based, human; details: MDA-MB-468, Alisertib 0.5 μM
Procedure: Cells were transfected with Aurora A and JAK2 for 48 h or with siRNA for 72 h or treated with the compounds for 24 h and then were trypsinized and resuspended in serum-free medium and placed in the upper chamber of the Matrigel-coated (0.8 μg/μL, BD Biosciences, San Diego, CA) Transwell insert (from 2 to 5 × 10^4 cells/well) and with 0.5% DMSO or the compounds at the indicated dose. Medium containing 10%FBS was placed in the lower chamber. […] Invading cells in the membrane were fixed with 100% methanol and stained with fresh prepared 0.2% crystal violet. Noninvasive cells in the upper chamber were removed by wiping the upper side of the membrane with a cotton swab, and cells located on the underside of the filter were observed and photographed under Olympus stereo microscope. The number of invading cells was counted using Image-Pro analysis software.

Cc1cc(Nc2cc(N3CCN(C)CC3)nc(Sc3ccc(NC(=O)C4CC4)cc3)n2)[nH]n1 [VX-680, Tozasertib]
effect on phosphorylation of Histone H3 (Ser-10) [1]: highly effective at inhibiting
G2/M accumulation [2]: induced a significant G2/M accumulation
effect on auto-phosphorylation of Aurora A [3]: highly effective at inhibiting

COc1cc(Nc2ncc3c(n2)-c2ccc(Cl)cc2C(c2c(F)cccc2OC)=NC3)ccc1C(=O)O [Alisertib]
soft agar colonies ([5]; vehicle 129): 56 colonies
inhibition at 2 µM ([5]; Homo sapiens, read-out: inhibition of soft agar colonies): 56.6%
inhibition at 0.05 µM ([6]; MDA-MB-468, Alisertib 0.05 μM): 25.4%
IC50 ([6]; MDA-MB-468, MTT): 70 nM
effect on P-STAT3 [7]: not P-STAT3
effect on P-Histone H3 [8]: inhibited P-Histone H3
effect on P-Histone H3 ([1]; MDA-MB-468, Alisertib 0.5 μM): inhibited P-Histone H3
effect on phosphorylation of Histone H3 (Ser-10) ([1]; MDA-MB-468, increasing concentrations, 2 h): highly effective at inhibiting
effect on auto-phosphorylation of Aurora A [3]: highly effective at inhibiting
effect on P-STAT3 [9]: not P-STAT3
PARP cleavage [10]: neither Alisertib nor Ruxolitinib induced PARP cleavage
invaded cells ([11]; vehicle 1066): 384 cells
inhibition at 4 µM ([11]; Homo sapiens): 64%
inhibition at 0.05 µM ([12]; HT-29, 48 h, read-out: inhibition of proliferation): 5%
IC50 ([12]; HT-29, HT29, MTT, 48 h): 2000 nM
inhibition at 0.5 µM ([13]; Homo sapiens): 49%
soft agar colonies ([13]; vehicle 131): 67 colonies
inhibition at 0.5 µM ([14]; Homo sapiens): 24.5%
invaded cells ([14]; vehicle 344): 260 cells
